Laboratory results reported in ChEMBL document CHEMBL1629629, “Reassessment of recommended imipenem doses in febrile neutropenic patients with hematological malignancies” (Antimicrob Agents Chemother, 2009).
In brackets after ≈: the same amount, converted by molar mass.

What was measured:
Homo sapiens [1] = assay: T>MIC in febrile neutropenic patient with hematological malignancies at 750 mg administered as 120 mins infusion every 6 hrs; assay type: functional
Homo sapiens [2] = assay: T>MIC in febrile neutropenic patient with hematological malignancies at 500 mg administered as 30 mins infusion every 6 hrs; assay type: functional
Pseudomonas aeruginosa = assay: Antimicrobial activity against Pseudomonas aeruginosa; assay type: functional
[3] = Renal clearance in febrile neutropenic patient with hematological malignancies at 500 mg administered as 30 mins infusion every 6 hrs; assay type: ADME, organism-based, Kidney; conditions: human, in vivo, iv, read-out: CL_renal (converted)
Homo sapiens [4] = species on record: Homo sapiens; assay: T>MIC in febrile neutropenic patient with hematological malignancies at 6 g/day
[5] = Cmax in febrile neutropenic patient with hematological malignancies at 500 mg administered as 30 mins infusion every 6 hrs; assay type: ADME, organism-based; design: dose 500 mg; conditions: human, in vivo, iv
[6] = Elimination half life in febrile neutropenic patient with hematological malignancies at 500 mg administered as 30 mins infusion every 6 hrs; assay type: ADME, organism-based; conditions: human, in vivo, iv
Enterococcus = assay: Antimicrobial activity against Enterococcus; assay type: functional
Homo sapiens [7] = assay: T>MIC in febrile neutropenic patient with hematological malignancies at 500 mg administered as infusion every 6 hrs; assay type: functional
[8] = T>MIC in febrile neutropenic patient with hematological malignancies at 500 mg administered as infusion every 4 hrs; assay type: functional, Homo sapiens

## C[C@@H](O)[C@H]1C(=O)N2C(C(=O)O)=C(SCCNC=N)C[C@H]12 [IMIPENEM ANHYDROUS]
Homo sapiens [1]
  fT>MIC: 58%
Homo sapiens [2]
  fT>MIC: 53%
Pseudomonas aeruginosa
  MIC90: 2 µg/mL (≈ 6.68 µM)
[3]
  CL renal: 79.8 mL/min
Homo sapiens [4]
  fT>MIC: 90%
[5]
  Cmax: 6600 ng/mL
[6]
  half-life: 1.43 h
Enterococcus
  MIC90: 2 µg/mL (≈ 6.68 µM)
Homo sapiens [7]
  fT>MIC: 18%
[8]
  fT>MIC: 73%
